Earlier results as cited in patent US9150582B2, “Composition and method for neuropeptide S receptor (NPSR) antagonists” (RESEARCH TRIANGLE INSTITUTE, priority 2011, dated 2015).
“Also recorded” adds a separate entry of the source.

How the values were obtained:
mice [1] = details: i.c.v., habituated and naive mice
[2] = tested on: basolateral amygdala (BLA); details: 0.1 nM injected into BLA
[3] = i.c.v.
mice [4] = details: i.c.v.
NPSR Ile^107 variant = target: T1, NPSR Ile^107 variant (Homo sapiens, UniProt Q6W5P4, N107I); details: calcium flux
T1 sequence (Q6W5P4 1-371 N107I): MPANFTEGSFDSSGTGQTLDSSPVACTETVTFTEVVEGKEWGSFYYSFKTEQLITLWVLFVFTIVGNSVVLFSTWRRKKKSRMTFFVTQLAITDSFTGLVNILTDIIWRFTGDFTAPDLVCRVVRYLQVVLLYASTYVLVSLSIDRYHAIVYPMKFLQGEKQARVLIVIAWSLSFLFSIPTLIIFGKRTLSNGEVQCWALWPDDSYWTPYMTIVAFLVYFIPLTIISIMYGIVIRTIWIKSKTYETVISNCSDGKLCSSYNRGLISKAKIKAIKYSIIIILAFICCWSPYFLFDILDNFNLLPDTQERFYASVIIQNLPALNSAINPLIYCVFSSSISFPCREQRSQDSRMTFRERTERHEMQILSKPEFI

NPSR-C0Alt = target: T2, NPSR-C0Alt (Homo sapiens, UniProt Q6W5P4); details: functional assay
T2 sequence (Q6W5P4 1-377 isoform Q6W5P4-4): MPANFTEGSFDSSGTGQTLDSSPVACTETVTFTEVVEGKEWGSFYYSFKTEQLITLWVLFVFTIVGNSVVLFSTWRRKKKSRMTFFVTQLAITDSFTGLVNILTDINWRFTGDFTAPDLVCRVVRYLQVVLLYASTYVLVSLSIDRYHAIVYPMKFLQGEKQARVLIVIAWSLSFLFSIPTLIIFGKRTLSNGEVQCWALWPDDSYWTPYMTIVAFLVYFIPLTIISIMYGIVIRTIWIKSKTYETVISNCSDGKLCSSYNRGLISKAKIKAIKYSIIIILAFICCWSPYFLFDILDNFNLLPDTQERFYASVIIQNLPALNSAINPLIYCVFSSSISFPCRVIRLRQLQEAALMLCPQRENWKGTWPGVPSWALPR

mice [5] = details: elevated plus maze, light dark box, marble burying
mice [6] = details: 0.1 nMol NPS
mice [7] = tested on: mice

In the case of “NPS: Human Neuropeptide S, 20 residue peptide SFRNGVGTGMKKTSFQRAKS (SEQ ID NO: 1), agonist of NPSR (Human)”, the locomotor activity (mice [1]) is given as “increased locomotor activity; also recorded: increase in locomotor activity”, the “anxiolytic activity at low dose” value [2] is given as “No anxiolytic activity was observed” and the contextual fear memories [2] is given as “significantly reduced contextual fear memories”. The “performance in novel recognition assays” value [3] was “dose-dependently improves performance”, the “formerly extinguished cocaine seeking behaviors” value (mice [4]) was “dose-dependently increased” and the “enhancement in functional sensitivity, Ile107 variant over Asn107” value (NPSR Ile^107 variant) was “five to ten fold enhancement”. For the same substance, the “potency at NPSR-C0Alt, lower versus the 107I variant” value (NPSR-C0Alt) was 30 fold, the anxiolytic-like behaviors (mice [5]) was “anxiolytic-like behaviors” and the “amount of stage 1 and 2 slow wave sleep and REM sleep” value (mice [6]; compared to saline) was “significantly reduced”. The “first hour of wakefulness” value (mice [6]; mice, saline 45%) was 69%, the “fear response (freezing behavior), administration pre-testing” value (mice [7]; NPS given pre-testing) was “decreased the fear response” and the “fear response, administration pre-training” value (mice [7]; NPS given pre-training) was “no effect on fear response”.
